Legend:
[1] = tested on: weeds; test: Post-emergence test B-1; assay type: in vivo; conditions: post-emergence test B-1, in words
Protocol: (§1) To produce a suitable preparation of active compound, 1 part by weight of active compound is mixed with the stated amount of solvent, the stated amount of emulsifier is added and the concentrate is diluted with water to the desired concentration.
(§2) Test plants of a height of 5-15 cm are sprayed with the preparation of active compound such that the particular amounts of active compound desired are applied per unit area. The concentration of the spray liquor is chosen so that the particular amounts of active compound desired are applied in 1000 l of water/ha.
(§3) After three weeks, the degree of damage to the plants is rated in % damage in comparison to the development of the untreated control.
(§4) 0%=no effect (like untreated control)

[2] = logP by reversed-phase HPLC (EEC Directive 79/831 Annex V.A8); assay type: physicochemical; conditions: acetonitrile gradient; for logP: HPLC, reversed-phase C 18, 43° C., acidic range a): 0.1% aqueous phosphoric acid; for chromatographic logP: reversed-phase C18 HPLC column; HPLC, reversed-phase C 18, 43° C., acidic range a): 0.1% aqueous phosphoric acid
Protocol: The logP values given in Table 1 were determined in accordance with EEC Directive 79/831 Annex V.A8 by HPLC (High Performance Liquid Chromatography) using a reversed-phase column (C 18). Temperature: 43° C.
(a) Mobile phase for the determination in the acidic range: 0.1% aqueous phosphoric acid, acetonitrile; linear gradient from 10% acetonitrile to 90% acetonitrile—the corresponding data in Table 1 are labelled^a).
Calibration was carried out using unbranched alkan-2-ones (having from 3 to 16 carbon atoms) with known logP values (the logP values were determined using the retention times, by linear interpolation between two successive alkanones).

[3] = tested on: Sinapis; test: Post-emergence test B-1 / greenhouse; assay type: in vivo; conditions: 500 g of ai./ha, rated after three weeks, 0% = no effect, 100% = total destruction
Protocol: as §1, §2, §3, §4

[4] = tested on: Setaria; test: Post-emergence test B-1 / greenhouse; assay type: in vivo; conditions: 500 g of ai./ha, rated after three weeks, 0% = no effect, 100% = total destruction
Protocol: as §1, §2, §3, §4

[5] = tested on: Amaranthus; test: Post-emergence test B-1 / greenhouse; assay type: in vivo; conditions: 500 g of ai./ha, rated after three weeks, 0% = no effect, 100% = total destruction
Protocol: as §1, §2, §3, §4

[6] = tested on: Xanthium; test: Post-emergence test B-1 / greenhouse; assay type: in vivo; conditions: 500 g of ai./ha, rated after three weeks, 0% = no effect, 100% = total destruction
Protocol: as §1, §2, §3, §4

[7] = tested on: Maize; test: Post-emergence test B-1 / greenhouse; assay type: in vivo; conditions: 500 g of ai./ha, rated after three weeks, 0% = no effect, 100% = total destruction
Protocol: as §1, §2, §3, §4

[8] = tested on: Echinocloa crus galli, Setaria viridis, Amaranthus lividus and Polygonum blumei MEISSN; test: Post-emergence test B-2; assay type: in vivo; conditions: post-emergence test B-2, plants in 2-leaf stage, rated after three weeks, in words
Protocol: as §1
Test plants (Echinocloa crus galli, Setaria viridis, Amaranthus lividus and Polygonum blumei MEISSN) which, on average, are in the 2-leaf stage, are sprayed with the preparation of active compound such that the particular amounts of active compound desired are applied per unit area.
as §3, §4

[9] = tested on: Echinocloa crus galli, Setaria viridis, Amaranthus lividus and Polygonum blumei MEISSN; test: Pre-emergence test A-2; assay type: in vivo; conditions: pre-emergence test A-2, rated after four weeks, in words
Protocol: as §1
Seeds of the test plants (Echinocloa crus galli, Setaria viridis, Amaranthus lividus and Polygonum blumei MEISSN) are sown in normal soil. The soil is sprayed with the preparation of active compound such that the particular amount of active compound desired is applied per unit area.
After four weeks, the degree of damage to the plants is rated in % damage in comparison to the development of the untreated controls.
as §4

[10] = tested on: Maize; test: Pre-emergence test A-1 / greenhouse; assay type: in vivo
Protocol: as §1
(§5) Seeds of the test plants are sown in normal soil. After about 24 hours, the soil is sprayed with the preparation of active compound such that the particular amount of active compound desired is applied per unit area. The concentration of the spray liquor is chosen so that the particular amount of active compound desired is applied in 1000 litres of water per hectare.
as §3, §4

[11] = tested on: Amaranthus; test: Pre-emergence test A-1 / greenhouse; assay type: in vivo; conditions: 500 g of ai./ha, rated after three weeks, 0% = no effect, 100% = total destruction
Protocol: as §1, §5, §3, §4

[12] = tested on: Abutilon; test: Pre-emergence test A-1 / greenhouse; assay type: in vivo; conditions: 500 g of ai./ha, rated after three weeks, 0% = no effect, 100% = total destruction
Protocol: as §1, §5, §3, §4

[13] = tested on: weeds; test: Pre-emergence test A-1; assay type: in vivo; conditions: pre-emergence test A-1, in words
Protocol: as §1, §5, §3, §4

[14] = tested on: Abutilon; test: Post-emergence test B-1 / greenhouse; assay type: in vivo; conditions: 500 g of ai./ha, rated after three weeks, 0% = no effect, 100% = total destruction
Protocol: as §1, §2, §3, §4

For `CC(Nc1nc(N)nc(C(F)(F)Cl)n1)C1CCCCC1` (racemic) [Example 6], the action against weeds [1] was “strong action”, the logP [2] was “logP = 3.51^a) (racemate)” and the “% damage, Sinapis” value [3] was 100%. The “% damage, Setaria” value [4] was 100%, the “% damage, Amaranthus” value [5] was 100% and the “% damage, Xanthium” value [6] was 100%.

In the case of `CC(Nc1nc(N)nc(C(C)(C)F)n1)C1CCCCC1` (racemic) [Example 7], the action against weeds [1] is reported as “strong action”, the logP [2] is reported as “logP = 1.93^a) (racemate)” and the “% damage, Sinapis” value [3] is reported as 100%. The “% damage, Setaria” value [4] was 100%, the “% damage, Amaranthus” value [5] was 100% and the “% damage, Xanthium” value [6] was 100%.

In the case of `CCC(=O)Nc1nc(NC(C)C2CCCCC2)nc(C(F)(F)Cl)n1` (racemic) [Example 8], the action against weeds [1] is reported as “strong action”, the logP [2] is reported as “logP = 4.23^a) (racemate)” and the “% damage, Sinapis” value [3] is reported as 100%. The “% damage, Setaria” value [4] was 100%, the “% damage, Amaranthus” value [5] was 100% and the “% damage, Xanthium” value [6] was 100%.

With `CCC(=O)Nc1nc(NC(C)C2CCCCC2)nc(C(C)(C)F)n1` (racemic) [Example 9] the action against weeds [1] was “strong action”, the logP [2] was “logP = 3.30^a) (racemate)” and the “% damage, Maize” value [7] was 30%. For the same molecule, the “% damage, Sinapis” value [3] was 100%, the “% damage, Setaria” value [4] was 90% and the “% damage, Amaranthus” value [5] was 95%.

In the case of `CCCC(C)Nc1nc(N)nc(C(C)(C)F)n1` (racemic) [Example 28], the “action against the abovementioned weeds” value [8] is reported as “strong action”.

In the case of `CC(C)CC(C)Nc1nc(N)nc(C(C)(C)F)n1` (racemic) [Example 29], the “action against the abovementioned weeds” value [8] is reported as “strong action”.

For `CC(C)CCCC(C)Nc1nc(N)nc(C(C)(C)F)n1` (racemic) [Example 31], the “action against the abovementioned weeds” value [8] was “strong action”.

With `CCC(CC)Nc1nc(N)nc(C(C)F)n1` (racemic) [Example 32] the “action against the abovementioned weeds” value [9] was “strong action”.

In the case of `C[C@H](Nc1nc(N)nc([C@@H](C)F)n1)C1CCCCC1` [Example 1, (R,S)-N′-(1-cyclohexyl-ethyl)-6-(1-fluoro-ethyl)-1,3,5-triazine-2,4-diamine], the “tolerance by crop plants, such as maize” value ([10]; pre-emergence test A-1, in words) is reported as “tolerated very well”, the “% damage, Maize” value ([10]; pre-emergence, 500 g of ai./ha, rated after three weeks, 0% = no effect, 100% = total destruction) is reported as 0% and the “% damage, Amaranthus” value [11] is reported as 100%. The “% damage, Abutilon” value [12] was 80%, the action against weeds [1] was “strong action” and the chromatographic logP [2] was 1.83. For the same molecule, the action against weeds [13] was “strong action”, the “% damage, Sinapis” value [3] was 100% and the “% damage, Setaria” value [4] was 100%. For the same molecule, the “% damage, Amaranthus” value [5] was 100% and the “% damage, Xanthium” value [6] was 100%.

In the case of `CCC(=O)Nc1nc(N[C@@H](C)C2CCCCC2)nc([C@@H](C)F)n1` [Example 2, (R,S)-N-[4-(1-cyclohexyl-ethylamino)-6-(1-fluoro-ethyl)-1,3,5-triazin-2-yl]-propionamide], the action against weeds [1] is reported as “strong action”, the chromatographic logP [2] is reported as 3.14 and the “% damage, Sinapis” value [3] is reported as 100%. For the same molecule, the “% damage, Setaria” value [4] was 100%, the “% damage, Amaranthus” value [5] was 100% and the “% damage, Xanthium” value [6] was 100%.

For `C[C@H](Nc1nc(NC=O)nc([C@@H](C)F)n1)C1CCCCC1` [Example 3, (R,S)-N-[4-(1-cyclohexyl-ethylamino)-6-(1-fluoro-ethyl)-1,3,5-triazin-2-yl]-formamide], the melting point was 127 °C, the action against weeds [1] was “strong action” and the chromatographic logP [2] was 3.04. The “% damage, Sinapis” value [3] was 100%, the “% damage, Setaria” value [4] was 100% and the “% damage, Amaranthus” value [5] was 100%. The “% damage, Abutilon” value [14] was 90%.

For `CCC(=O)Nc1nc(N[C@H](C)C2CCCCC2)nc(C(C)F)n1` (stereo partly shown) [Example 15], the logP [2] was “logP = 3.11^a) (R enantiomer)”.

In the case of `CCC(=O)Nc1nc(N[C@H](C)C2CCCCC2)nc(C(C)(C)F)n1` [Example 16], the logP [2] is reported as “logP = 3.25^a) (R enantiomer)”.

For `CCC(=O)Nc1nc(N[C@H](C)C2CCCCC2)nc(C(Cl)Cl)n1` [Example 17], the logP [2] was “logP = 2.93^a) (R enantiomer)”.

With `CCC(=O)Nc1nc(N[C@@H](C)C2CCCCC2)nc(C(C)F)n1` (stereo partly shown) [Example 21] the logP [2] was “logP = 3.11^a) (S enantiomer)”.

In the case of `CCC(=O)Nc1nc(N[C@@H](C)C2CCCCC2)nc(C(C)(C)F)n1` [Example 22], the logP [2] is reported as “logP = 3.26^a) (S enantiomer)”.

For `CCC(=O)Nc1nc(N[C@@H](C)C2CCCCC2)nc(C(Cl)Cl)n1` [Example 23], the logP [2] was “logP = 2.93^a) (S enantiomer)”.

In the case of `CCC(CC)Nc1nc(N)nc(C(C)(C)F)n1` [Example 33], the “action against the abovementioned weeds” value [9] is reported as “strong action”.

With `CCC(CC)Nc1nc(NC(C)=O)nc(C(C)(C)F)n1` [Example 34] the “action against the abovementioned weeds” value [9] was “strong action”.

In the case of “N-(1-ethylpropyl)-6-(1-fluoro-1-methylethyl)-1,3,5-triazine-2,4-diamine [Example 4]”, the action against weeds [1] is reported as “strong action”, the “% damage, Sinapis” value [3] is reported as 100% and the “% damage, Setaria” value [4] is reported as 100%. The “% damage, Amaranthus” value [5] was 100% and the “% damage, Xanthium” value [6] was 100%.

With “N-acetyl-N′-(1-ethylpropyl)-6-(1-fluoro-1-methylethyl)-1,3,5-triazine-2,4-diamine [Example 5]” the action against weeds [1] was “strong action”, the “% damage, Sinapis” value [3] was 95% and the “% damage, Setaria” value [4] was 95%. For the same molecule, the “% damage, Amaranthus” value [5] was 100% and the “% damage, Abutilon” value [14] was 90%.
